The target in assay [1] is T1, human TLR7 (Homo sapiens, UniProt Q9NYK1).
T1 construct: host or cells: HEK-Blue cells
T1 sequence (Q9NYK1 27-1049): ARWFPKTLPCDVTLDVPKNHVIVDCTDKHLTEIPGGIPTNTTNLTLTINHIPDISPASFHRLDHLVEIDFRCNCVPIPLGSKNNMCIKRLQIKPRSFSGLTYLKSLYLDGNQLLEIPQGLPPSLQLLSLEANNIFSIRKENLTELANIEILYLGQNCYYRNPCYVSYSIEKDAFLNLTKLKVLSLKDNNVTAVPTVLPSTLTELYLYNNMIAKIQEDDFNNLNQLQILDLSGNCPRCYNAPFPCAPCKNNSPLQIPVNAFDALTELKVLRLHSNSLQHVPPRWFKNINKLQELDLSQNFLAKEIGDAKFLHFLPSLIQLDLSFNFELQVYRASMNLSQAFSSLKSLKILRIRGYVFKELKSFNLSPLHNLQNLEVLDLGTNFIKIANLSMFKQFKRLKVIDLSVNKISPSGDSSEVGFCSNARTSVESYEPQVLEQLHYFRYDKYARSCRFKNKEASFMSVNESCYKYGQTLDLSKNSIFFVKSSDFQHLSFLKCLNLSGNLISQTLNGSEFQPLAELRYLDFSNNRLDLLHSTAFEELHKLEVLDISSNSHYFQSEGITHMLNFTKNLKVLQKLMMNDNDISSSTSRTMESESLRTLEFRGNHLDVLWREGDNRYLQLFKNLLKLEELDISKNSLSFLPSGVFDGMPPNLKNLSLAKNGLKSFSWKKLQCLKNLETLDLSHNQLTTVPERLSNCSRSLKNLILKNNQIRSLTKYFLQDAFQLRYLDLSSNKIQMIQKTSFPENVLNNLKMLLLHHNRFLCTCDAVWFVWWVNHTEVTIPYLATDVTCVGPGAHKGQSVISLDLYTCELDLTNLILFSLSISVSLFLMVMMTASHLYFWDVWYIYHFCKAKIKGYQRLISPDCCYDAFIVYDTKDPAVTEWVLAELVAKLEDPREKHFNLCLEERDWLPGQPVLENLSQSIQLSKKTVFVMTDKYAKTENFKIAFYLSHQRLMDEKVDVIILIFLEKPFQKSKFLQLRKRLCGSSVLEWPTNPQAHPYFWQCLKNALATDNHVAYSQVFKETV
As to the kind of experiment: TLR7 inhibition reporter assay (HEK-Blue SEAP). The class given is cell-based. The following applies: HEK-Blue cells overexpressing human TLR7, gardiquimod 7.5 μM, 22 hour incubation. A digest of the protocol: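 SEAP readout via HEK-Blue Detection medium after 22 h at 37 °C, 5% CO2 defines inhibition, normalized between agonist-plus-DMSO wells and a reference inhibitor. Compound dose range 0.05 nM–50 μM; TLR7 cells at 15,000/well (gardiquimod), TLR8 at 20,000/well (R848).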
In general terms: A reporter such as luciferase makes a cellular process visible.

For assay [2], the target named is T2, human TLR8 (Homo sapiens, UniProt Q9NR97).
T2 construct: host or cells: HEK-Blue cells
T2 sequence (Q9NR97 27-1041): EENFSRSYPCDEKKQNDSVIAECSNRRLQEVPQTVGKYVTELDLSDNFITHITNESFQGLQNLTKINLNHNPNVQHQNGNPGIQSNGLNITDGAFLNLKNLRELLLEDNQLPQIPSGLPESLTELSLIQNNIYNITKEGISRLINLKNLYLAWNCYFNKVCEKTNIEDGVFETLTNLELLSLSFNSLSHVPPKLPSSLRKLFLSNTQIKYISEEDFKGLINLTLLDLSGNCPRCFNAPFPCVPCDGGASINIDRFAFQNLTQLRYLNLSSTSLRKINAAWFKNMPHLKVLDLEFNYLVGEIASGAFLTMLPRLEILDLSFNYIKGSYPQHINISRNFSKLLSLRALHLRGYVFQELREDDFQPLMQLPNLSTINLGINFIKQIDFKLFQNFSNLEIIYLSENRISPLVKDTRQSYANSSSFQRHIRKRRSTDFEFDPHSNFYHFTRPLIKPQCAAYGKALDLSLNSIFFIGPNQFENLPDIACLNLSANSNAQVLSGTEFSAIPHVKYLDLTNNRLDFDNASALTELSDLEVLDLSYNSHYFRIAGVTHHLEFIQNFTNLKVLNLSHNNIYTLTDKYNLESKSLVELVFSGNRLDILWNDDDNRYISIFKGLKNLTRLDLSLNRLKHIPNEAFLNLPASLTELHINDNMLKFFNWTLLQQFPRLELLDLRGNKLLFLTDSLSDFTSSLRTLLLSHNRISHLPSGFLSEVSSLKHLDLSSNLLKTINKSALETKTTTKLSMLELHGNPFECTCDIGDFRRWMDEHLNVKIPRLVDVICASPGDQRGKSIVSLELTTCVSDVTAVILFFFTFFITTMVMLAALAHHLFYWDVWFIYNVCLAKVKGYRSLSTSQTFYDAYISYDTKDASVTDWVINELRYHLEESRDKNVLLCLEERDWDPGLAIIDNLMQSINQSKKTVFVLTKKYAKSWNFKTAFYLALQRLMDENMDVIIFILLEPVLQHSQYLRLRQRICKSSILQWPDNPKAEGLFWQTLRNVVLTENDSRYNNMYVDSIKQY
As to the kind of experiment: TLR8 inhibition reporter assay (HEK-Blue SEAP). The note with it: HEK-Blue cells overexpressing human TLR8, R848 15.9 μM, 22 hour incubation. The class given is cell-based. An outline of the steps: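 HEK-Blue cells overexpressing human TLR7, TLR8 or TLR9 carry a SEAP reporter driven by NF-κB/AP-1 sites. Compounds (0.05 nM–50 μM) were preincubated 30 min at room temperature, then cells were stimulated with gardiquimod 7.5 μM (TLR7), R848 15.9 μM (TLR8) or ODN2006 5 nM (TLR9) for 22 h at 37 °C.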

For the compound `Cc1cc2c(cc1-c1cc(C)c3ncnn3c1)[nH]c(=O)n2C1CCN(C(=O)CN(C)C)CC1` [Example 101, 1-(1-(dimethylglycyl)piperidin-4-yl)-6-methyl-5-(8-methyl-[1,2,4]triazolo[1,5-a]pyridin-6-yl)-1,3-dihydro-2H-benzo[d]imidazol-2-one], the values for the half-inhibitory concentration (IC50) in assay [1] and in assay [2] were 173 nM and 50.3 nM, respectively.

As to `COc1cc(-c2cc3[nH]c(=O)n([C@@H]4CCCN(C(C)C)C4)c3cc2C(C)C)cn2ncnc12` [Example 137, (R)-6-isopropyl-1-(1-isopropylpiperidin-3-yl)-5-(8-methoxy-[1,2,4]triazolo[1,5-a]pyridin-6-yl)-1,3-dihydro-2H-benzo[d]imidazol-2-one], the half-inhibitory concentration (IC50) (in general, the concentration that inhibits the measured activity by half) in assay [1] was determined as 0.74 nM; in assay [2], 1.37 nM.

In the case of `CCCN1CCC[C@@H](n2c(=O)[nH]c3cc(-c4cn5ncnc5c(C)c4C)c(C(C)C)cc32)C1` [Example 150, (R)-5-(7,8-dimethyl-[1,2,4]triazolo[1,5-a]pyridin-6-yl)-6-isopropyl-1-(1-propylpiperidin-3-yl)-1,3-dihydro-2H-benzo[d]imidazol-2-one], the figures for the IC50 in assay [1] and in assay [2] were 5.52 nM and 4.25 nM, respectively.

Take `COc1cc(-c2cc3[nH]c(=O)n(C4CCN(CC5CCOC5)CC4)c3cc2C(C)C)cn2ncnc12` (centres unmarked) [Example 160, 6-isopropyl-5-(8-methoxy-[1,2,4]triazolo[1,5-a]pyridin-6-yl)-1-(1-((tetrahydrofuran-3-yl)methyl)piperidin-4-yl)-1,3-dihydro-2H-benzo[d]imidazol-2-one]: the half-maximal inhibitory concentration (IC50) worked out at 8.66 nM in assay [1] and 5.62 nM in assay [2].

As for `Cc1cc(-c2ccc3c(c2)[nH]c(=O)n3C2CCN(C(=O)CN(C)C)CC2)cn2ncnc12` [Example 102, 1-(1-(dimethylglycyl)piperidin-4-yl)-5-(8-methyl-[1,2,4]triazolo[1,5-a]pyridin-6-yl)-1,3-dihydro-2H-benzo[d]imidazol-2-one], the 50% inhibitory concentration (IC50) in assay [1] and in assay [2] was > 3130 nM in each case.

On to `Cc1c(-c2cc3[nH]c(=O)n([C@@H]4CCCN(C5COC5)C4)c3cc2C(C)C)cn2ncnc2c1C` [Example 146, (R)-5-(7,8-dimethyl-[1,2,4]triazolo[1,5-a]pyridin-6-yl)-6-isopropyl-1-(1-(oxetan-3-yl)piperidin-3-yl)-1,3-dihydro-2H-benzo[d]imidazol-2-one], for which the 50% inhibitory concentration (IC50) in assay [1] worked out at 182 nM; in assay [2] it was 6.05 nM.

As for `COc1cc(-c2cc3[nH]c(=O)n([C@@H]4CCCN(CC(=O)N(C)C)C4)c3cc2C)cn2ncnc12` [Example 99, (R)-2-(3-(5-(8-methoxy-[1,2,4]triazolo[1,5-a]pyridin-6-yl)-6-methyl-2-oxo-2,3-dihydro-1H-benzo[d]imidazol-1-yl)piperidin-1-yl)-N,N-dimethylacetamide], the IC50 in assay [1] came to 391 nM; in assay [2] it was 354 nM.

On to `COc1cc(-c2cc3[nH]c(=O)n(C4CCN(C(C)C)CC4)c3cc2C(C)C)cn2ncnc12` [Example 163, 6-isopropyl-1-(1-isopropylpiperidin-4-yl)-5-(8-methoxy-[1,2,4]triazolo[1,5-a]pyridin-6-yl)-1,3-dihydro-2H-benzo[d]imidazol-2-one], for which the half-maximal inhibitory concentration (IC50) in assay [1] was found to be 7.49 nM; in assay [2], 7.58 nM.

Regarding `CCCN1CCC(n2c(=O)[nH]c3cc(-c4cc(OC)c5ncnn5c4)c(C(C)C)cc32)CC1` [Example 155, 6-isopropyl-5-(8-methoxy-[1,2,4]triazolo[1,5-a]pyridin-6-yl)-1-(1-propylpiperidin-4-yl)-1,3-dihydro-2H-benzo[d]imidazol-2-one], the results for the concentration for half-maximal inhibition (IC50) in assay [1] and in assay [2] were 6.33 nM and 9.56 nM, respectively.

For the compound `COc1cc(-c2cc3[nH]c(=O)n([C@@H]4CCCN(C(C)C)C4)c3cc2C(F)(F)F)cn2ncnc12` [Example 111, (R)-1-(1-isopropylpiperidin-3-yl)-5-(8-methoxy-[1,2,4]triazolo[1,5-a]pyridin-6-yl)-6-(trifluoromethyl)-1,3-dihydro-2H-benzo[d]imidazol-2-one], the values for the IC50 in assay [1] and in assay [2] were 23.6 nM and 12.6 nM, respectively.

Values taken from US12187723B2 (BRISTOL-MYERS SQUIBB COMPANY, priority 2019, dated 2025).
